Consider one molecule from patent publication US9221853B2, “Glyphosate dimethylamine salt crystal, preparation method and use thereof” (ZHEJIANG WYNCA CHEMICAL INDUSTRY GROUP CO., LTD., priority 2009, dated 2015).

Where a name gives a salt, the structure may show the parent alone.

The test system of one assay is weeds. The following applies: field plot 2 m×2.5 m, spray, effective ingredient 60 g/mou (based on glyphosate) diluted by water to 30 l/mou.
Assay [1] deals with perennial weeds: Alligator Alternanthera Herb (Alternanthera philoxeroides). As to conditions: CD Observation Method visual score (2.0-10.0); 60 g/mou glyphosate, field spray; observed 2.5, 5, 7 and 11 days after application. The text has this: (§1) A CD Observation Method was used to make records.
(§2) Assessment Criteria of the CD Observation Method
(§3) A visual method was used with the following criteria: • 2.0 mild poisoning symptom in a spot of leaves • 4.0 a few leaves lost green or turned yellow while the plant growth was substantially normal • 6.0 leaves lost green or turned yellow or some leaves withered, while the stalk was nearly normal, and was yet able to grow slowly • 8.0 caulicle or inflorescence and rachis of leaves withered; most of stalk turned yellow or lost green mildly and was unable to grow normally; the plant died locally • 10.0 the whole plant died

For assay [2], the system named is annual weeds: Common Crabgrass (Digitaria sanguinalis), Goosegrass (Eleusine indica), Bitter Fleabane (Erigeron acer). The following applies: CD Observation Method visual score (2.0-10.0); 60 g/mou glyphosate, field spray; observed 2.5, 5, 7 and 11 days after application.
Text: as §1, §2, §3

With `O=C(O)CNCP(=O)(O)O` [dimethylamine salt of N-phosphonomethyl glycine], in the assay on weeds, the “Days for weeds to die” value is 9~11 d. Moreover, the “Control on perennial weeds” value in assay [1] was determined as 9.4. Also, the “Control on annual weeds” value in assay [2] stood at 9.6.
